Reference: patent publication US8192962B2, “Processes for detecting toxic substances” (Daikin Industries, Ltd., priority 2001, dated 2012)

Tested on: Detoxification protein genes
Test: DNA chip mRNA expression in yeast, detoxification protein genes (Table 8)
Type: cell-based, Saccharomyces cerevisiae S288C
How it was run: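 Expression change after 2 h toxicant exposure (growth-inhibiting, sub-lethal) of log-phase S. cerevisiae S288C at 25° C. Oligo-dT-purified mRNA was labeled with Cy3-dUTP or Cy5-dUTP and hybridized >12 h at 65° C. to a genome-wide chip; ratio of scanned fluorescence to control.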

[Cl][Pb][Cl] [(4), PbCl2]
The level of expressed mRNA in the presence of chemical substance/The level of expressed mRNA in the absence of chemical substance (yeast gene YBL064C): 1.7
The level of expressed mRNA in the presence of chemical substance/The level of expressed mRNA in the absence of chemical substance (yeast gene YBR008C): 0.7
The level of expressed mRNA in the presence of chemical substance/The level of expressed mRNA in the absence of chemical substance (yeast gene YBR145W): 0.9
The level of expressed mRNA in the presence of chemical substance/The level of expressed mRNA in the absence of chemical substance (yeast gene YBR244W): 0.9
The level of expressed mRNA in the presence of chemical substance/The level of expressed mRNA in the absence of chemical substance (yeast gene YBR293W): 1.8
The level of expressed mRNA in the presence of chemical substance/The level of expressed mRNA in the absence of chemical substance (yeast gene YCL035C): 1.7
The level of expressed mRNA in the presence of chemical substance/The level of expressed mRNA in the absence of chemical substance (yeast gene YCL069W): 0.8
The level of expressed mRNA in the presence of chemical substance/The level of expressed mRNA in the absence of chemical substance (yeast gene YCR083W): 1.8
The level of expressed mRNA in the presence of chemical substance/The level of expressed mRNA in the absence of chemical substance (yeast gene YDL100C): 0.8
The level of expressed mRNA in the presence of chemical substance/The level of expressed mRNA in the absence of chemical substance (yeast gene YDL168W): 0.9
The level of expressed mRNA in the presence of chemical substance/The level of expressed mRNA in the absence of chemical substance (yeast gene YDR256C): 1.3
The level of expressed mRNA in the presence of chemical substance/The level of expressed mRNA in the absence of chemical substance (yeast gene YDR453C): 3.0
The level of expressed mRNA in the presence of chemical substance/The level of expressed mRNA in the absence of chemical substance (yeast gene YDR513W): 2.6
The level of expressed mRNA in the presence of chemical substance/The level of expressed mRNA in the absence of chemical substance (yeast gene YDR538W): 1.2
The level of expressed mRNA in the presence of chemical substance/The level of expressed mRNA in the absence of chemical substance (yeast gene YEL027W): 1.1
The level of expressed mRNA in the presence of chemical substance/The level of expressed mRNA in the absence of chemical substance (yeast gene YEL065W): 0.4
The level of expressed mRNA in the presence of chemical substance/The level of expressed mRNA in the absence of chemical substance (yeast gene YER185W): 7.0
The level of expressed mRNA in the presence of chemical substance/The level of expressed mRNA in the absence of chemical substance (yeast gene YFL050C): 2.2
The level of expressed mRNA in the presence of chemical substance/The level of expressed mRNA in the absence of chemical substance (yeast gene YGL013C): 0.7
The level of expressed mRNA in the presence of chemical substance/The level of expressed mRNA in the absence of chemical substance (yeast gene YGL254W): 0.6
The level of expressed mRNA in the presence of chemical substance/The level of expressed mRNA in the absence of chemical substance (yeast gene YGR088W): 2.4
The level of expressed mRNA in the presence of chemical substance/The level of expressed mRNA in the absence of chemical substance (yeast gene YGR138C): 1.2
The level of expressed mRNA in the presence of chemical substance/The level of expressed mRNA in the absence of chemical substance (yeast gene YGR197C): 1.0
The level of expressed mRNA in the presence of chemical substance/The level of expressed mRNA in the absence of chemical substance (yeast gene YGR209C): 1.5
The level of expressed mRNA in the presence of chemical substance/The level of expressed mRNA in the absence of chemical substance (yeast gene YGR224W): 1.2
The level of expressed mRNA in the presence of chemical substance/The level of expressed mRNA in the absence of chemical substance (yeast gene YHL040C): 0.4
The level of expressed mRNA in the presence of chemical substance/The level of expressed mRNA in the absence of chemical substance (yeast gene YHL047C): 1.0
The level of expressed mRNA in the presence of chemical substance/The level of expressed mRNA in the absence of chemical substance (yeast gene YHR008C): 1.8
The level of expressed mRNA in the presence of chemical substance/The level of expressed mRNA in the absence of chemical substance (yeast gene YHR048W): 1.7
The level of expressed mRNA in the presence of chemical substance/The level of expressed mRNA in the absence of chemical substance (yeast gene YHR053C): 1.1
The level of expressed mRNA in the presence of chemical substance/The level of expressed mRNA in the absence of chemical substance (yeast gene YHR055C): 1.2
The level of expressed mRNA in the presence of chemical substance/The level of expressed mRNA in the absence of chemical substance (yeast gene YIR002C): 0.6
The level of expressed mRNA in the presence of chemical substance/The level of expressed mRNA in the absence of chemical substance (yeast gene YIR038C): 2.0
The level of expressed mRNA in the presence of chemical substance/The level of expressed mRNA in the absence of chemical substance (yeast gene YJL101C): 1.2
The level of expressed mRNA in the presence of chemical substance/The level of expressed mRNA in the absence of chemical substance (yeast gene YJR104C): 1.2
The level of expressed mRNA in the presence of chemical substance/The level of expressed mRNA in the absence of chemical substance (yeast gene YKL026C): 4.9
The level of expressed mRNA in the presence of chemical substance/The level of expressed mRNA in the absence of chemical substance (yeast gene YKL064W): 0.8
The level of expressed mRNA in the presence of chemical substance/The level of expressed mRNA in the absence of chemical substance (yeast gene YKR066C): 0.7
The level of expressed mRNA in the presence of chemical substance/The level of expressed mRNA in the absence of chemical substance (yeast gene YKR105C): 1.5
The level of expressed mRNA in the presence of chemical substance/The level of expressed mRNA in the absence of chemical substance (yeast gene YKR106W): 1.4
The level of expressed mRNA in the presence of chemical substance/The level of expressed mRNA in the absence of chemical substance (yeast gene YLL028W): 0.5
The level of expressed mRNA in the presence of chemical substance/The level of expressed mRNA in the absence of chemical substance (yeast gene YLL057C): 0.9
The level of expressed mRNA in the presence of chemical substance/The level of expressed mRNA in the absence of chemical substance (yeast gene YLL060C): 2.6
The level of expressed mRNA in the presence of chemical substance/The level of expressed mRNA in the absence of chemical substance (yeast gene YLR043C): 1.8
The level of expressed mRNA in the presence of chemical substance/The level of expressed mRNA in the absence of chemical substance (yeast gene YLR046C): 0.8
The level of expressed mRNA in the presence of chemical substance/The level of expressed mRNA in the absence of chemical substance (yeast gene YML028W): 1.3
The level of expressed mRNA in the presence of chemical substance/The level of expressed mRNA in the absence of chemical substance (yeast gene YML116W): 1.4
The level of expressed mRNA in the presence of chemical substance/The level of expressed mRNA in the absence of chemical substance (yeast gene YMR015C): 0.9
The level of expressed mRNA in the presence of chemical substance/The level of expressed mRNA in the absence of chemical substance (yeast gene YMR038C): 0.8
The level of expressed mRNA in the presence of chemical substance/The level of expressed mRNA in the absence of chemical substance (yeast gene YNL239W): 1.2
The level of expressed mRNA in the presence of chemical substance/The level of expressed mRNA in the absence of chemical substance (yeast gene YNL241C): 1.0
The level of expressed mRNA in the presence of chemical substance/The level of expressed mRNA in the absence of chemical substance (yeast gene YNL259C): 1.2
The level of expressed mRNA in the presence of chemical substance/The level of expressed mRNA in the absence of chemical substance (yeast gene YOL158C): 0.9
The level of expressed mRNA in the presence of chemical substance/The level of expressed mRNA in the absence of chemical substance (yeast gene YOR031W): 3.4
The level of expressed mRNA in the presence of chemical substance/The level of expressed mRNA in the absence of chemical substance (yeast gene YOR153W): 1.1
The level of expressed mRNA in the presence of chemical substance/The level of expressed mRNA in the absence of chemical substance (yeast gene YOR247W): 1.4
The level of expressed mRNA in the presence of chemical substance/The level of expressed mRNA in the absence of chemical substance (yeast gene YOR251C): 1.8
The level of expressed mRNA in the presence of chemical substance/The level of expressed mRNA in the absence of chemical substance (yeast gene YOR273C): 1.0
The level of expressed mRNA in the presence of chemical substance/The level of expressed mRNA in the absence of chemical substance (yeast gene YPL163C): 0.9
The level of expressed mRNA in the presence of chemical substance/The level of expressed mRNA in the absence of chemical substance (yeast gene YPR200C): 5.0
